19 molecules from US20060049177A1, “Induction heating cooker” (LG Electronics Inc., priority 2004, published 2006) can be followed below.

Where two headings read alike, the source gives them in different places.

Series [1] can be described thus: cytotoxicity in mock-infected MT-4 cells (MTT). The following applies: human, mock-infected MT-4 cells. How it is done:
(§1) A rapid, sensitive and automated assay procedure was used for the in vitro evaluation of anti-HIV agents. An […] T4-cell line, MT-4, which was previously shown (Koyanagi et al., Int. J. Cancer, 36, 445-451, 1985) to be highly susceptible to and permissive for HIV infection, served as the target cell line. Inhibition of the HIV-induced cytopathic effect was used as the end point. The viability of both HIV- and mock-infected cells was assessed spectrophotometrically via the in situ reduction of 3-(4,5-dimethylthiazol-2-yl)-2,5-diphenyltetrazolium bromide (MTT). The 50% […], cytotoxic concentration (CC50 in μM) was defined as the concentration of compound that reduced the absorbance of the mock-infected control sample by 50%. The percent protection achieved by the compound in HIV-infected cells was calculated by the following formula: [formula]
(§2) whereby (ODT)HIV is the optical density measured with a given concentration of the test compound in HIV-infected cells; (ODC)HIV is the optical density measured for the control untreated HIV-infected cells; (ODC)MOCK is the optical density measured for the control untreated mock-infected cells; all optical density values were determined at 540 nm. The dose achieving 50% protection according to the above formula was defined as the 50% inhibitory concentration (IC50 in μM). The ratio of CC50 to IC50 was defined as the selectivity index (SI).

The subject of another series is HIV-1. In words: in vitro anti-HIV assay: inhibition of HIV-induced cytopathic effect in MT-4 cells (MTT). It is filed as cell-based. The following applies: for IC50: HIV-infected MT-4 cells, dose achieving 50% protection against cytopathic effect, MTT, OD 540 nm, mean value, read-out: IC50; for SI: selectivity index = ratio of CC50 to IC50. As to the method: as §1, §2

The next series concerns MT-4 cells. Kind of series: cytotoxicity in mock-infected MT-4 cells (MTT). As to the method:
as §1, §2

[2] abbreviates: Human immunodeficiency virus 1, MT4.

In turn, `CNc1nc(Cc2c(Cl)cccc2Cl)nc(Nc2ccc(C#N)cc2)n1` [Compound 7, 4-[[4-[(2,6-dichlorophenyl)methyl]-6-(methyl-amino)-1,3,5-triazin-2-yl]amino]benzonitrile] returned a melting point of 229 to 230 °C. Also, the CC50 in series [1] was more than 100 µM. Further, the IC50 in the series with HIV-1 (setting [2]) was 10 nM. In addition, in the series on HIV-1, the SI is more than 14285.

`CCOC(=O)N(C(=O)OCC)c1nc(Cc2c(Cl)cccc2Cl)nc(N(C(=O)OCC)c2ccc(C#N)cc2)n1` [Compound 41] registered a CC50 in the series on MT-4 cells of 40.2 µM. Further, in the series with HIV-1, the IC50 was 13 nM and the SI was 3125.

Regarding `CN(C)CCCNc1nc(Cc2c(Cl)cccc2Cl)nc(Nc2ccc(C#N)cc2)n1` [Compound 31], in the series on MT-4 cells, the CC50 was 9.6 µM. Moreover, in the series on HIV-1, the IC50 was found to be 19 nM and the SI is on record as 506.

Turning to `N#Cc1ccc(Nc2nc(Cc3c(Cl)cccc3Cl)nc(NCCCCO)n2)cc1` [Compound 24], the CC50 with MT-4 cells amounted to 36.1 µM. In the series on HIV-1, the IC50 amounted to 68 nM and the SI is 529.

Regarding `CCOC(=O)CC[C@H](Nc1nc(Cc2c(Cl)cccc2Cl)nc(Nc2ccc(C#N)cc2)n1)C(=O)OCC` [Compound 17], in the series on MT-4 cells, the CC50 was more than 20 µM. Further, in the series on HIV-1, the IC50 was 4300 nM and the SI is more than 4.

Consider `N#Cc1ccc(Nc2nc(Cc3c(Cl)cccc3Cl)nc(NCCOCCO)n2)cc1` [Compound 27], for which the CC50 in the series on MT-4 cells is 46.8 µM. In addition, in the series with HIV-1, the IC50 stood at 56 nM and the SI is recorded as 837.

In the series on MT-4 cells, `Cc1cc(C)c(C)c(Cc2nc(N)nc(Nc3ccc(C#N)cc3)n2)c1C` [Compound 54] had a CC50 of 43.8 µM. In addition, in the series with HIV-1, the IC50 was 5 nM and the SI is reported as 9515.

With `Cl.N#Cc1ccc(Nc2nc(Cc3c(Cl)cccc3Cl)nc(NO)n2)cc1.O` [Compound 21, 4-[[4-[(2,6-dichlorophenyl)methyl]-6-(hydroxyamino)-1,3,5-triazin-2-yl]amino]benzonitrile monohydrochloride.monohydrate], the CC50 in the series on MT-4 cells is 8.9 µM. Also, in the series with HIV-1, the IC50 amounted to 2 nM and the SI is recorded as 4924.

The molecule `COc1ccc(Br)cc1Cc1nc(N)nc(Nc2ccc(C#N)cc2)n1` [Compound 55] showed a CC50 in the series on MT-4 cells of more than 20 µM. In addition, in the series with HIV-1, the IC50 amounted to 52 nM and the SI is reported as more than 384.

In the series with MT-4 cells, `Cc1ccc(C)c(Cc2nc(N)nc(Nc3ccc(C#N)cc3)n2)c1` [Compound 57] returned a CC50 of 36.8 µM. In the series on HIV-1, the IC50 is 3 nM and the SI came to 11883.

In the series with MT-4 cells, `CCN(CC)c1nc(Cc2c(Cl)cccc2Cl)nc(Nc2ccc(C#N)cc2)n1` [Compound 12] returned a CC50 of more than 20 µM. In the series with HIV-1, the IC50 is 8100 nM and the SI was more than 2.

On to `N#Cc1ccc(Nc2nc(Cc3c(Cl)cccc3Cl)nc(NCCc3cccs3)n2)cc1` [Compound 35], for which, in the series with MT-4 cells, the midpoint of cytotoxicity, the CC50, lay at 53 µM. In the series with HIV-1, the IC50 turned out to be 700 nM and the SI is recorded as 75.

In the series on MT-4 cells, `COc1ccc(OC)c(Cc2nc(N)nc(Nc3ccc(C#N)cc3)n2)c1` [Compound 46] came in with a CC50 of more than 100 µM. For the same molecule, in the series on HIV-1, the IC50 amounted to 40 nM and the SI is listed as more than 2506.

In the series with MT-4 cells, `COc1cccc(Cc2nc(N)nc(Nc3ccc(C#N)cc3)n2)c1OC` [Compound 50] had a CC50 of more than 20 µM. Besides, in the series with HIV-1, the IC50 was found to be 79 nM and the SI is on record as more than 252.

With `N#Cc1ccc(Nc2nc(Cc3c(Cl)cccc3Cl)nc(NC3CCOC3=O)n2)cc1` (stereo not shown) [Compound 32], the CC50 with MT-4 cells was determined as 83.4 µM. In the series with HIV-1, the IC50 stood at 2000 nM and the SI stood at 42.

In turn, `CC(C)NC(=O)Nc1nc(Cc2c(Cl)cccc2Cl)nc(Nc2ccc(C#N)cc2)n1` [Compound 6, N-[4-[(4-cyano-phenyl)amino]-6-[(2,6-dichlorophenyl)methyl]-1,3,5-triazin-2-yl]-N′-(1-methylethyl)-urea] yielded a melting point of 267 to 268 °C. Also, in the series with HIV-1 (setting [2]), the 50% inhibitory concentration (IC50) worked out at 380 nM. Moreover, in the series with HIV-1, the SI was more than 263.

`Nc1nc(Cc2c(Cl)cccc2Cl)nc(Nc2ccc(Cl)cc2)n1` [Compound 5] had a CC50 in the series on MT-4 cells of 47.5 µM. Moreover, in the series with HIV-1, the IC50 is 17 nM and the SI was found to be 2793.

For `NC(=O)c1ccc(Nc2nc(N)nc(Cc3c(Cl)ccc4[nH]ccc34)n2)cc1` [Compound 9, 4-[[4-amino-6-[(5-chloro-1H-indol-4-yl)methyl]-1,3,5-triazin-2-yl]amino]benzamide], the melting point lay in the range of 204 to 205 °C. Further, the IC50 in the series on HIV-1 (setting [2]) was 66 nM. Moreover, the SI with HIV-1 came to 830.

Turning to `CCO.Cl.N#Cc1ccc(Nc2nc(N)nc(C(CC3CC3)c3c(Cl)cccc3Cl)n2)cc1` (stereo not shown) [Compound 61], in the series with MT-4 cells, the CC50 was 53.4 µM. In the series with HIV-1, the IC50 amounted to 6900 nM and the SI turned out to be 7.
